Data as given in patent US6211170A, “Azetidinone derivatives for the treatment of HCMV infections” (Boehringer Ingelheim (Canada) Ltd., priority 1998, dated 2001).
Like-named read-outs stand apart in the source and are kept apart here.

Experiments:
HCMV NO protease = biological target: T1, HCMV NO protease (Human cytomegalovirus, UniProt P16753); experiment: HCMV NO Protease Assay (fluorogenic substrate cleavage); type: biochemical; details: HCMV NO protease 100 nM, substrate 5 μM, pH 8, 2.5 h at 30°
T1 construct: HCMV NO protease
T1 sequence (P16753 1-256): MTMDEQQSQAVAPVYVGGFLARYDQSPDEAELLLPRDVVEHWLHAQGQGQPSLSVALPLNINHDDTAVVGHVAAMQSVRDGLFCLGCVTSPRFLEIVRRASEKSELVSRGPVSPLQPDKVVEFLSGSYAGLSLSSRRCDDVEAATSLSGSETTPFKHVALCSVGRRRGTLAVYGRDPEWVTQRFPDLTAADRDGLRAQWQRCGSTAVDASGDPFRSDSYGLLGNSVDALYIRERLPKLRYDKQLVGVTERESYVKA
Description: This particular assay determines the ability of a test compound to inhibit the activity (IC50) of HCMV protease. More specifically, in the assay described herein, the inhibitory activity of the test compound is evaluated on the basis of its ability to interfere with the HCMV NO protease cleavage of a fluorogenic peptide substrate which in turn is based on the maturation cleavage site of the enzyme.
1. HCMV NO Protease Assay
Material & Methods: Fluorescence measurements were recorded on a Perkin-Elmer LS-50B spectrofluorimeter equipped with a plate reader accessory. UV measurements were recorded on a Thermomax® microplate reader from Molecular Devices Corporation, Menlo Park, Calif., USA.
HCMV NO protease was assayed with an internally quenched fluorogenic substrate based on the maturation cleavage site (Abz-[…](3-NO2)R--OH, kcat /KM =260 M^-1 s^-1). The fluorescence increase upon cleavage of the Ala-Ser amide bond was monitored using excitation λ=312 nm (slit 2.5 nm) and emission λ=415 nm (slit 5 nm). A protocol adaptable to a 96-well plate format was designed for the determination of IC50 values of inhibitors.
After this period, enzymatic hydrolysis of the fluorogenic substrate in the absence of inhibitor led to about a 30% conversion. Quenching was not required before fluorescence measurement since the total scanning time by the plate reader accessory was brief relative to the duration of the reaction. The aqueous incubation buffer contained 50 mM tris(hydroxymethyl)aminomethane.HCl pH 8, 0.5M Na2 SO4, 50 mM NaCl, 0.1 mM EDTA, 1 mM tris(2-carboxyethyl)phosphine.HCl, 3% v/v DMSO and 0.05% w/v casein. The final concentrations of HCMV NO protease (expressed in terms of total monomer concentration) and substrate were 100 nM and 5 μM respectively. IC50 values were obtained through fitting of the inhibition curve to a competitive inhibition model using SAS NLIN procedure. The mode of inhibition was determined by measurements of the initial rates (in cuvettes) at various substrate concentrations in the buffer as described above. The IC50 values listed in the following tables were obtained according to this assay.

[1] = tested on: HCMV (strain AD169, ATCC VR-538); experiment: Plaque Reduction Assay (PRA) in HCMV-infected Hs-68 cells; type: cell-based, human cytomegalovirus (HCMV)
Description: B. Plaque Reduction Assay (PRA):
Hs-68 cells (ATCC # CRL 1635) were seeded in 12-well plates at 83,000 cells/well in 1 mL of DMEM medium (Gibco Canada Inc.) supplemented with 10% fetal bovine serum (FBS, Gibco Canada Inc.). The plates were incubated for 3 days at 37° to allow the cells to reach 80-90% confluency prior to the assay.
The medium was removed from the cells by aspiration. The cells were then infected with approximately 50 PFU of HCMV (strain AD169, ATCC VR-538) in DMEM medium supplemented with 5% inactivated FBS (assay medium). (DMEM medium is commercially available and has been described by R. Dulbecco et al., Virology 1959, 8, 396.) The virus was allowed to adsorb to cells for 2 h at 37°. Following viral adsorption, the medium was removed from the wells by aspiration. The cells were then incubated with or without 1 mL of appropriate concentrations of test reagent in assay medium. Occasionally, test compounds were added 24 h post-infection. After 4 days of incubation at 37°, the medium was exchanged with fresh medium containing test compound and 4 days later the cells were fixed with 1% aqueous formaldehyde and stained with a 2% violet solution in 20% ethanol in water. Microscopic plaques were counted using a stereomicroscope. Drug effects were calculated as a percent reduction in the number of plaques in the presence of each drug concentration compared to the number observed in the absence of drug. Ganciclovir was used as a positive control in all experiments.

[2] = Cytotoxicity, tetrazolium salt (MTT) metabolic assay; type: cell-based; details: cytotoxic effects, read-out: TC50 (the source's name)
Description: Cytotoxic effects noted as TC50 in the following tables were determined according to the tetrazolium salt (MTT) metabolic assay, F. Denizot and F. Lang, J. Immun. Meth., 1986, 89, 271.

[3] = Human betaherpesvirus 5, Hs68, 192 h, plaque reduction, HCMV strain AD169, Hs-68 cells, 8 days, read-out: EC50
[4] = Human betaherpesvirus 5, AD169, Hs68, 192 h

| Structure (SMILES) | IC50 (HCMV NO protease) | EC50 [1, 3] | CC50 [2] | EC50 [1, 4] |
| --- | --- | --- | --- | --- |
| COC(=O)c1ccc(CN(C)C(=O)N2C(=O)C[C@@H]2CSc2nc3ccccc3o2)cc1 [Entry 310] | 3.3 µM |  |  |  |
| CC[C@@H](NC(=O)N1C(=O)[C@@H](C)[C@@H]1CSCC(C)C)c1ccccc1 [Entry 117] | 3.5 µM | 110 µM | > 250 µM |  |
| CN(Cc1ccc(C(=O)OCc2ccccc2)cc1)C(=O)N1C(=O)C[C@@H]1CSc1ncccn1 [Entry 304] | 2.5 µM | 120 µM | > 250 µM |  |
| O=C1C[C@H](CSc2ncccn2)N1C(=O)N1CCC[C@@H]1c1ccccc1 [Entry 403, 1-(2(R)-phenyl-pyrrolidine-1-carbonyl)-4-(pyrimidin-2-ylsulfanylmethyl)azetidin-2-one] | 14 µM | 95 µM | > 250 µM |  |
| CC[C@@H](NC(=O)N1C(=O)C[C@@H]1CN1CCOCC1)c1ccccc1 [Entry 205] | 9.4 µM |  |  |  |
| CN(Cc1ccc(C(F)(F)F)cc1)C(=O)N1C(=O)C[C@@H]1CSc1nc2ncccc2s1 [Entry 316] | 1.6 µM | 14 µM | > 18 µM |  |
| CC[C@@H](NC(=O)N1C(=O)C[C@@H]1CS(=O)(=O)c1ccccc1)c1ccccc1 [Entry 144] | 1.9 µM | 5 µM | 58 µM |  |
| CN(Cc1ccc(F)cc1)C(=O)N1C(=O)C[C@@H]1CSc1ncccn1 [Entry 313] | 8.3 µM | 110 µM | > 250 µM |  |
| CC[C@@H](NC(=O)N1C(=O)C[C@@H]1CSc1nccn1C)c1ccccc1 [Entry 140] | 0.7 µM |  | > 268 µM | > 268 µM |
| CC[C@@H](NC(=O)N1C(=O)[C@@H](C)[C@@H]1CSc1nccn1C)c1ccccc1 [Entry 116] | 1.9 µM | 130 µM | > 250 µM |  |
| CC[C@@H](NC(=O)N1C(=O)C[C@@H]1[C@H](C)Sc1ncccn1)c1ccccc1 [Entry 208, 2-oxo-4(R)-[1(S)-(pyrimidin-2-ylsulfanyl)ethyl]-azetidine-1-carboxylic acid (1(R)-phenylpropyl)amide] | 4.5 µM | > 250 µM | > 250 µM |  |
| CC[C@@H](NC(=O)N1C(=O)C[C@@H]1CSc1ccccn1)c1ccccc1 [Entry 103] | 4 µM | 150 µM | > 250 µM |  |
| CC[C@@H](NC(=O)N1C(=O)C[C@@H]1COC(=O)Nc1ccccc1)c1ccccc1 [Entry 131] | 0.4 µM |  | > 32 µM | 20 µM |
| CC[C@@H](NC(=O)N1C(=O)[C@@H](C)[C@@H]1CSc1ncccn1)c1ccccc1 [Entry 111] | 0.65 µM | 110 µM | > 250 µM |  |
| O=C(OCc1ccccc1)C1CCCN1C(=O)N1C(=O)C[C@@H]1CSc1ncccn1 (some centres unmarked) [Entry 401] | 21 µM |  |  |  |
| C[C@@H](NC(=O)N1C(=O)C[C@@H]1CSc1ccccc1)c1ccccc1 [Entry 212] | 4.4 µM | 31 µM | > 52 µM |  |
| O=C1C[C@H](CS(=O)(=O)c2ccccc2)N1C(=O)NCc1ccccc1 [Entry 203, 2(R)-benzenesulfonylmethyl-4-oxoazetidine-1-carboxylic acid benzyl amide] | 24 µM |  |  |  |
| CC[C@@H](NC(=O)N1C(=O)C[C@@H]1[C@@H](C)Sc1ncccn1)c1ccccc1 [Entry 209, 2-oxo-4(R)-[1(R)-(pyrimidin-2-ylsulfanyl)ethyl]azetidine-1-carboxylic acid (1(R)-phenylpropyl)amide] | 3.4 µM | 80 µM | > 168 µM |  |
| CN(Cc1ccc(C#N)cc1)C(=O)N1C(=O)C[C@@H]1CSc1ncccn1 [Entry 312] | 4.7 µM | 100 µM | > 250 µM |  |
| CC[C@@H](NC(=O)N1C(=O)C[C@@H]1CN(C)Cc1ccccc1)c1ccccc1 [Entry 137] | 9.9 µM | > 147 µM | > 147 µM |  |
| CC[C@@H](NC(=O)N1C(=O)C[C@@H]1COc1ccccc1)c1ccccc1 [Entry 130] | 5.2 µM | 101 µM | > 250 µM |  |
| CC[C@@H](NC(=O)N1C(=O)C[C@@H]1CSc1nccc(C)n1)c1ccccc1 [Entry 124] | 4 µM | > 250 µM | > 250 µM |  |

| Structure (SMILES) | IC50 (HCMV NO protease) | EC50 [1, 3] | CC50 [2] | EC50 [1, 4] |
| --- | --- | --- | --- | --- |
| CC[C@@H](NC(=O)N1C(=O)C[C@@H]1COC(=O)c1ccccc1)c1ccccc1 [Entry 145] | 0.12 µM |  | 250 µM | 250 µM |
| CC[C@@H](NC(=O)N1C(=O)C[C@@H]1CSc1ccccc1)c1ccccc1 [Entry 129] | 2.5 µM | > 250 µM | > 250 µM |  |
| COC(=O)c1ccc(CN(C)C(=O)N2C(=O)C[C@@H]2CSc2nccn2C)cc1 [Entry 308] | 22 µM |  |  |  |
| COC(=O)c1ccc(CN(C)C(=O)N2C(=O)C[C@@H]2CSc2nnnn2C)cc1 [Entry 309] | 1 µM | 130 µM | > 250 µM |  |
| CN(Cc1ccc(C(F)(F)F)cc1)C(=O)N1C(=O)C[C@@H]1CSc1nc2ccccc2o1 [Entry 319] | 1.7 µM | 160 µM | > 250 µM |  |
| CC[C@@H](NC(=O)N1C(=O)[C@@H](C)[C@@H]1CSC1CCCCC1)c1ccccc1 [Entry 114] | 3 µM | > 250 µM | > 250 µM |  |
| CN(Cc1ccccc1)C(=O)N1C(=O)C[C@@H]1CSc1ncccn1 [Entry 318] | 10 µM | 150 µM | > 150 µM |  |
| CC[C@@H](NC(=O)N1C(=O)[C@@H](C)[C@@H]1CSc1ccccc1)c1ccccc1 [Entry 113] | 1.6 µM |  |  |  |
| CC[C@@H](NC(=O)N1C(=O)C[C@@H]1COc1cccc(CC(=O)O)c1)c1ccccc1 [Entry 136] | 0.1 µM |  |  |  |
| CC[C@@H](NC(=O)N1C(=O)C[C@@H]1COc1cccc(CCC(=O)O)c1)c1ccccc1 [Entry 135] | 0.1 µM |  |  |  |
| CC(=O)OC[C@H]1CC(=O)N1C(=O)NCc1ccncc1 [Entry 207] | 46 µM |  |  |  |
| O=C1C[C@H](CSc2ncccn2)N1C(=O)N1CCC[C@H]1c1ccccc1 [Entry 402, 1-(2(S)-phenyl-pyrrolidine-1-carbonyl)-4-(pyrimidin-2-ylsulfanylmethyl)azetidin-2-one] | 34 µM |  |  |  |
| CN(Cc1ccco1)C(=O)N1C(=O)C[C@@H]1CSc1ncccn1 [Entry 303] | 17 µM |  |  |  |
| CN(CC1CCCCO1)C(=O)N1C(=O)C[C@@H]1CSc1ncccn1 (some centres unmarked) [Entry 315] | 28 µM |  |  |  |
| CC[C@@H](NC(=O)N1C(=O)[C@@H](C)[C@@H]1CSC(C)C)c1ccccc1 [Entry 110] | 5.6 µM |  |  |  |
| Cn1nnnc1SC[C@H]1CC(=O)N1C(=O)N1CCCC1c1ccccc1[N+](=O)[O-] (some centres unmarked) [Entry 408] |  | 100 µM | > 133 µM |  |
| CCSC[C@H]1[C@H](C)C(=O)N1C(=O)N[C@H](CC)c1ccccc1 [Entry 120] | 4 µM |  |  |  |
| O=C1C[C@H](C[S+]([O-])c2ccccc2)N1C(=O)NCc1ccccc1 (stereo partly drawn) [Entry 202, 4(R) -benzenesulfinylmethyl-2-oxoazetidine-1-carboxylic acid benzylamide] | 13 µM |  |  |  |
| CN(C(=O)N1C(=O)C[C@@H]1CSc1ncccn1)c1ccccc1 [Entry 306] | 22 µM |  |  |  |
| Cn1nnnc1SC[C@H]1CC(=O)N1C(=O)NC1CCc2ccccc21 (some centres unmarked) [Entry 211] |  | 140 µM | 188 µM |  |
| CN(Cc1ccc([N+](=O)[O-])cc1)C(=O)N1C(=O)C[C@@H]1CSc1ncccn1 [Entry 322] |  | > 118 µM | > 118 µM |  |
| CC[C@@H](NC(=O)N1C(=O)C[C@@H]1CN(CC)CC)c1ccccc1 [Entry 210] | 48 µM |  |  |  |
